Experimental data from publication PMC5354587, “Ergosterone-coupled Triazol molecules trigger mitochondrial dysfunction, oxidative stress, and acidocalcisomal Ca^2+ release in Leishmania mexicana promastigotes” (Microbial Cell, 2015).
Read-outs that look alike come from different tables or passages of the source.

Tests used:
Assay type in all cases: cell-based
[1] = tested on: Leishmania mexicana promastigotes; assay: Half-inhibitory concentration on parasites, modified MTT method; settings: for IC50: read-out: IC50 on L. mexicana promastigotes; for Selectivity index: promastigotes compared to human dermic fibroblasts; for growth inhibition on promastigotes: concentrations even higher than 100 μM
Experimental: Parasites were treated with different concentrations of the synthesized compounds for 48 hours to determine their cytotoxic effect. A dose dependent growth inhibition was observed after this time.
(§1) Promastigotes of Leishmania mexicana Bel 21 strain were cultured at 26°C in Liver Infusion Tryptone (LIT) medium supplemented with 10% fetal bovine serum (Internegocios). Primary cultures of human dermic fibroblasts were performed at 37°C in DMEN medium (Sigma) supplemented with 10% fetal bovine serum in a CO2 incubator at 5% CO2.
(§2) To determine the IC50 in parasites and human fibroblasts the protocol described by was followed. Briefly, a suspension of 2 x 10^6 parasites per mL^-1 or 5 x 10^3 fibroblasts per well were transferred into 96 well plates and different concentrations of the compounds were added. Plates were incubated under the corresponding culture conditions for 48 or 72 hours for L. mexicana or human fibroblasts, respectively. Thereafter, parasites plates were centrifuged prior to the elimination of the supernatant. Cell viability was measured by the modified MTT method, where cells were incubated with the MTT substrate at 0.2 mg x mL^-1 for 4 hours. Colored crystals formed were solubilized in DMSO and absorbance was measured at 570 nm. IC50 was obtained from a dose response curve using the software OriginLab Pro 6.0^©.

human dermic fibroblasts = assay: Half-inhibitory concentration on human fibroblasts, modified MTT method; settings: 72 hours
Experimental: as §1, §2

[2] = tested on: Leishmania mexicana promastigotes; assay: Mitochondrial membrane potential, Mitotracker Red CMXROS, flow cytometry
Experimental: In order to determine the energetic state of the mitochondrion after parasites treatment, the compound Mitotraker Red CMXROS was used. As described in the Materials and Methods section, parasites were treated for 6, 16, 24, and 48 hours with each molecule at its IC50, then incubated with Mitotraker Red CMXROS (50 nM) for 30 minutes under culture conditions, and finally analyzed by flow cytometry. […] Additionally, to rule out if Erg itself (the non-azole fraction of the conjugates) could be responsible for this hyperpolarization, parasites were treated with this compound and ΔΨmit was monitored for up to 48 hours by flow cytometry.
Mitotracker CMX Red(Invitrogen) was used to determine the mitochondrial membrane potential (Ψmit) of treated parasites. After 6, 16, 24, and 48 hours treatment, cells were incubated in culture medium with 50 nM Mitotracker CMX Red for 30 minutes at 26°C in the dark. Thereafter, parasites were washed twice with PBS, resuspended in 1 mL buffer, and analyzed using a cytometer (Beckman Coulter). Parasites incubated with valinomycin (500 nM for 30 minutes) were used as positive control. To evaluate the effect of ergosterone coupled molecules on the mitochondrial membrane potential immediately after molecule addition we used the fluorophore rhodamine-123, a mitochondrion-specific cationic dye, which distributes across the inner mitochondrial membranes strictly according to their membrane potential, as described before. Briefly, 1 x 10^7 parasites were washed twice with rhodamine 123 loading buffer (20 mM Tris-HCl, 130 mM KCl, 1 mM MgCl2, and 2 mM KH2PO4) and incubated with 20 μM rhodamine 123 for 45 minutes at 29°C under agitation. Samples were washed twice, resuspended in 500 μL of the same buffer, and transferred to a quartz cuvette. Fluorescence (ex 488 nm and em 530 nm) was registered in a Hitachi F-7000 Spectrofluorimeter. FCCP was used as control for mitochondrial membrane depolarization.

[3] = tested on: Leishmania mexicana promastigotes; assay: Reactive oxygen species (superoxide) determination with dihydroethidium; settings: Erg-GTr/Erg-GTr2 treated cells; data not shown
Experimental: To evaluate the intracellular level of reactive oxygen species (ROS) after Erg-GTr or Erg-GTr2 treatment, parasites were incubated with dihydroethidium, which become oxidized in the presence of the superoxide anion to form the fluorescent DNA-intercalating agent ethidium, i.e. the emitted fluorescence is proportional to the amount of ROS present. Figure 6A represents a ROS production kinetics analysis performed between 6 and 48 hours post-treatment with both molecules. […] In fact, ROS levels increased already during the first 6 hours of treatment when compared with control cells, which maintained a ROS level lower than 2% throughout the whole kinetic study.
Figure 6 FIGURE 6: Superoxide production after Erg-GTr or Erg-GTr2 treatment. Parasites were treated with 1.4 μM Erg-GTr or 2.3 μM Erg-GTr2 or DMSO (control cells), harvested after different time points and then prepared to measure intracellular superoxide using dyhidroethidium. (A) Superoxide production kinetics in control and treated parasites. […] (B) Representative FACS histograms showing the superoxide-sensitive fluorescence of control and treated promastigotes after 24 hours incubation. The percentages were determined using the WinMDI software. […]
Dihydroethidium (Invitrogen) was used to detect the intracellular level of superoxide anion. […] Thereafter, samples were washed with PBS and immediately analyzed in a Beckman Coulter Cytometer.

[4] = tested on: Leishmania mexicana promastigotes; assay: Alkalinization of acidocalcisomes, acridine orange; settings: Erg-GTr 1.4 μM or Erg-GTr2 2.4 μM; nigericin 2 μM as control
Description: Leishmania can store Ca^2+ in different compartments like the endoplasmic reticulum, the mitochondrion, and the acidocalcisomes. The major Ca^2+ reservoir is represented by this last organelle. In order to analyze if the [Ca^2+]cyt increase is due to its release from acidocalcisomes, parasites were charged with acridine orange and assayed fluorimetrically. Since acridine orange accumulates in acidic compartments, it allows detection of alkalinization.
To evaluate the effect of ergosterone coupled molecules on the Ca^2+ reservoir organelle acidocalcisome, parasites were stained with acridine orange as described previously. Briefly, 1 x 10^7 parasites were washed twice with loading buffer (20 mM Tris-HCl, 130 mM KCl, 1 mM MgCl2, and 2 mM KH2PO4) and incubated for 5 minutes with acridine orange (5 μM). Samples were washed twice, resuspended in 500 μL of the same buffer, and transferred to a stirred quartz cuvette at 29°C. Fluorescence (ex 488 nm and em 530 nm) was registered in a Hitachi F-7000 Spectrofluorimeter. Nigericin was used as control for acidocalcisome alkalinization.

Row | Compound | Selectivity index [1] | IC50 ([1]; Leishmania mexicana, 48 h) [µM] | growth inhibition on promastigotes ([1]; 48 hours) | further results
1 | 1-[5-hydroxy-10-methyl-3-oxo-17-(1,4,5-trimethyl-hex-2-enyl)-1,2,3,4,5,9,10,11,12,13,14,15,16,17-tetradecahydro-cyclopenta[a]phenanthren-6-ylidene-hydrazinocarbonyl]-pyridinium chloride [Erg-GP] | 1.0 | – | – | IC50 ([1]; 48 hours, MTT): 42.4 ± 2.8 µM; IC50 (human dermic fibroblasts): 44.5 µM
2 | CC(C)C(C)C=CC(C)C1CCC2C3=CC=C4CC(O)CCC4(C)C3CCC21C (stereo not shown) [Ergosterol, 10,13-dimethyl-17-(1,4,5-trimethyl-hex-2-enyl)-2,3,4,9,10,11,12,13,14,15,16,17-dodecahydro-1H-cyclopenta[a]phenanthren-3-ol, reference compound] | 0.8 | 33.8 ± 4.7 | – | IC50 (human dermic fibroblasts; Fibroblast): 27 ± 3.5 µM
3 | CC(C)C(C)C=CC(C)C1CCC2C3=CC(=O)C4(O)CC(=O)CCC4(C)C3CCC21C (stereo not shown) [Ergosterone, 5-hydroxy-10,13-dimethyl-17-(1,4,5-trimethyl-hex-2-enyl)-1,4,5,9,10,11,12,13,14,15,16,17-dodecahydro-2H-cyclopenta[a]phenanthrene-3,6-dione] | 3.1 | 9 ± 0.7 | – | IC50 (human dermic fibroblasts; Fibroblast): 28.3 ± 8.5 µM; effect on inner mitochondrial membrane potential (ΔΨmit) ([2]; treatment up to 48 hours, flow cytometry): No differences
4 | NNC(=O)[n+]1ccccc1.[Cl-] [GP, 1-hydrazinocarbonyl-pyridinium chloride, reference compound] | – | > 200 | did not show inhibition | –
5 | C[N+](C)(C)CC(=O)NN [GT, hydrazinocarbonylmethyl-trimethyl-ammonium chloride, reference compound] | – | > 200 | did not show inhibition | –
6 | NNC(=O)n1cnnc1 [GTr, [1,2,4]triazole-4-carboxylic acid hydrazide] | – | 158 | did not show inhibition | –
7 | CC(=O)N[C@@H](CS)C(=O)O [N-acetyl-cysteine, reference compound] | – | – | – | effect of ROS scavenger on mitochondrion hyperpolarization ([2]; Erg-GTr/Erg-GTr2 treated cells, data not shown): did not prevent; effect of ROS scavenger on ROS formation [3]: revert partially
8 | CO[C@@H]1C[C@@H](C[C@H]2CC[C@H](C)[C@H]([C@@H](C)C(=O)O)O2)O[C@]2(O[C@](C)([C@H]3CC[C@@](C)([C@@H]4O[C@@H]([C@H]5O[C@@](O)(CO)[C@H](C)C[C@@H]5C)C[C@@H]4C)O3)C[C@H]2C)[C@@H]1C [nigericin, reference compound] | – | – | – | acridine orange fluorescence (acidocalcisome alkalinization) [4]: further reduction of the acidity
9 | [5-hydroxy-10-methyl-3-oxo-17-(1,4,5-trimethyl-hex-2-enyl)-1,2,3,4,5,9,10,11,12,13,14,15,16,17-tetradecahydro-cyclopenta[a]phenanthren-6-ylidene-hydrazinocarbonylmethyl]-trimethyl-ammonium chloride [Erg-GT] | 3.5 | – | – | IC50 ([1]; 48 hours, MTT): 10.4 ± 0.2 µM; IC50 (human dermic fibroblasts): 36.4 µM
